Test results published in patent publication US12495798B2, “Nicotinamide compound and herbicidal composition comprising compound” (KOREA RESEARCH INSTITUTE OF CHEMICAL TECHNOLOGY, priority 2019, dated 2025).

Key:
Type in all cases: in vivo
crabgrass [1] = experiment: Herbicidal activity test against upland field weeds (foliar treatment test); conditions: Digitaria sanguinalis, scale 0-100; for pest or weed control at 50 g/ha: 50 g ai/ha
Outline: (§1)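 Weeds were raised from seed or rootstocks in horticultural soil in a greenhouse (30±5° C., 14/10 h light/dark), then foliage was hand-sprayed with compound at 50 or 75 g a.i./ha in 50% acetone with 0.1% Tween-20. Control was scored visually 0–100 against untreated plants after 14 days, or 21 if needed.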

velvetleaf = experiment: as above; design: key to Foliar treatment herbicidal activity, velvet leaf: 0 (no control); 100 (complete control)
Outline: as §1

fall panicum = experiment: Herbicidal activity test against upland field weeds (soil treatment test); design: key to Soil treatment herbicidal activity, Fall panicum: 0 (no control); 100 (complete control); conditions: scale 0 (no control) to 100 (complete control)
Outline: (§2)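 Pre-emergence test: seeds or rootstocks were sown in fertilized sandy loam, and the next day the soil surface was sprayed with compound at 50 or 75 g a.i./ha in 50% acetone/0.1% Tween-20. Plants were grown in a greenhouse (30±5 °C, 14/10 h light/dark), then visually scored 0–100 against untreated at 14 d (21 d if needed).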

sorghum [2] = experiment: as above; design: key to Soil treatment herbicidal activity, Sorghum: 0 (no control); 100 (complete control); conditions: scale 0 (no control) to 100 (complete control)
Outline: as §2

sorghum [3] = experiment: Herbicidal activity test against upland field weeds (foliar treatment test); conditions: Sorghum, scale 0-100; for plant injury at 50 g/ha: 50 g ai/ha
Outline: as §1

wheat = experiment: Phytotoxicity test for field crops (soil treatment test); design: key: 0 (no harm); 9 (complete withered)
Outline: (§3)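 Visual phytotoxicity grading (0 no harm to 9 complete withering, relative to untreated control) 10 and 20 days after a pre-emergence soil spray applied one day post-sowing. Rates 19˜300 g a.i./ha in 33% acetone/0.1% Tween-20; sterilized soil pH 6.1, fertilized; greenhouse 30±5° C, 14/10 h photoperiod.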

soybean = experiment: as above; design: key: 0 (no harm); 9 (complete withered)
Outline: as §3

corn = experiment: as above; design: key: 0 (no harm); 9 (complete withered)
Outline: as §3

cotton = experiment: as above; design: key: 0 (no harm); 9 (complete withered)
Outline: as §3

rice = experiment: as above; design: key: 0 (no harm); 9 (complete withered)
Outline: as §3

quack grass = experiment: Herbicidal activity test against upland field weeds (soil treatment test); design: key to Soil treatment herbicidal activity, quack grass: 0 (no control); 100 (complete control); conditions: scale 0 (no control) to 100 (complete control)
Outline: as §2

barnyard grass = experiment: as above; design: key to Soil treatment herbicidal activity, barnyard grass: 0 (no control); 100 (complete control); conditions: scale 0 (no control) to 100 (complete control)
Outline: as §2

indian jointvetch = experiment: Herbicidal activity test against upland field weeds (foliar treatment test); design: key to Foliar treatment herbicidal activity, Indian jointvetch: 0 (no control); 100 (complete control); conditions: scale 0-100
Outline: as §1

crabgrass [4] = experiment: Herbicidal activity test against upland field weeds (soil treatment test); design: key to Soil treatment herbicidal activity, Crabgrass: 0 (no control); 100 (complete control); conditions: scale 0 (no control) to 100 (complete control)
Outline: as §2

[5] = 50 g ai/ha, Wheat (10 days after treatment)
[6] = 50 g ai/ha, Wheat (20 days after treatment)
[7] = 100 g ai/ha, Wheat (10 days after treatment)
[8] = 100 g ai/ha, Wheat (20 days after treatment)
[9] = 50 g ai/ha, Soybean (10 days after treatment)
[10] = 50 g ai/ha, Soybean (20 days after treatment)
[11] = 100 g ai/ha, Soybean (10 days after treatment)
[12] = 100 g ai/ha, Soybean (20 days after treatment)
[13] = 50 g ai/ha, Corn (10 days after treatment)
[14] = 50 g ai/ha, Corn (20 days after treatment)
[15] = 100 g ai/ha, Corn (10 days after treatment)
[16] = 100 g ai/ha, Corn (20 days after treatment)
[17] = 50 g ai/ha, Cotton (10 days after treatment)
[18] = 50 g ai/ha, Cotton (20 days after treatment)
[19] = 100 g ai/ha, Cotton (10 days after treatment)
[20] = 100 g ai/ha, Cotton (20 days after treatment)
[21] = 50 g ai/ha, Rice (10 days after treatment)
[22] = 50 g ai/ha, Rice (20 days after treatment)
[23] = 100 g ai/ha, Rice (10 days after treatment)
[24] = 100 g ai/ha, Rice (20 days after treatment)

Row | SMILES | Soil treatment phytotoxicity, Wheat (wheat; [5]) | Soil treatment phytotoxicity, Wheat (wheat; [6]) | Soil treatment phytotoxicity, Wheat (wheat; [7]) | Soil treatment phytotoxicity, Wheat (wheat; [8]) | Soil treatment phytotoxicity, Soybean (soybean; [9]) | Soil treatment phytotoxicity, Soybean (soybean; [10]) | Soil treatment phytotoxicity, Soybean (soybean; [11]) | Soil treatment phytotoxicity, Soybean (soybean; [12]) | Soil treatment phytotoxicity, Corn (corn; [13]) | Soil treatment phytotoxicity, Corn (corn; [14]) | Soil treatment phytotoxicity, Corn (corn; [15]) | Soil treatment phytotoxicity, Corn (corn; [16]) | Soil treatment phytotoxicity, Cotton (cotton; [17]) | Soil treatment phytotoxicity, Cotton (cotton; [18]) | Soil treatment phytotoxicity, Cotton (cotton; [19]) | Soil treatment phytotoxicity, Cotton (cotton; [20]) | Soil treatment phytotoxicity, Rice (rice; [21]) | Soil treatment phytotoxicity, Rice (rice; [22]) | Soil treatment phytotoxicity, Rice (rice; [23]) | Soil treatment phytotoxicity, Rice (rice; [24]) | further results
1 | CN(Cc1nnn(C)n1)c1nc(C(F)(F)F)ccc1C(=O)Nc1nnnn1C [Compound No. 2-26, 2-(methyl((2-methyl-2H-tetrazol-5-yl)methyl)amino)-N-(1-methyl-1H-tetrazol-5-yl)-6-(trifluoromethyl)nicotinamide] | 0 | 0 | 0 | 0 | 6 | 4 | 7 | 7 | 0 | 0 | 0 | 0 | 1 | 4 | 1 | 4 | 3 | 9 | 6 | 9 | pest or weed control at 75 g/ha (crabgrass [1]; 75 g ai/ha): 95%; pest or weed control at 75 g/ha (velvetleaf; Abutilon theophrasti, 75 g ai/ha, scale 0-100, read-out: Foliar treatment herbicidal activity, velvet leaf): 98%; Soil treatment herbicidal activity, Fall panicum (fall panicum; 75 g ai/ha): 100; plant injury at 75 g/ha (sorghum [2]; Sorghum, 75 g ai/ha): 20%; plant injury at 75 g/ha (sorghum [3]; 75 g ai/ha): 10%; Soil treatment herbicidal activity, quack grass (quack grass; 75 g ai/ha): 0; Soil treatment herbicidal activity, barnyard grass (barnyard grass; 75 g ai/ha): 100; pest or weed control at 75 g/ha (indian jointvetch; 75 g ai/ha): 90%; pest or weed control at 75 g/ha (crabgrass [4]; Digitaria sanguinalis, 75 g ai/ha): 98%
2 | CON(Cc1nnn(C)n1)c1nc(C(F)(F)F)ccc1C(=O)Nc1nnnn1C [Compound No. 2-30, 2-(methoxy((2-methyl-2H-tetrazol-5-yl)methyl)amino)-N-(1-methyl-1H-tetrazol-5-yl)-6-(trifluoromethyl)nicotinamide] | 0 | 1 | 0 | 1 | 7 | 7 | 7 | 7 | 0 | 0 | 0 | 0 | 2 | 9 | 2 | 9 | 4 | 9 | 6 | 9 | pest or weed control at 50 g/ha (crabgrass [1]): 95%; Foliar treatment herbicidal activity, velvet leaf (velvetleaf; 50 g ai/ha, scale 0-100): 100; Soil treatment herbicidal activity, Fall panicum (fall panicum; 50 g ai/ha): 100; plant injury at 50 g/ha (sorghum [2]; Sorghum, 50 g ai/ha): 50%; plant injury at 50 g/ha (sorghum [3]): 20%; Soil treatment herbicidal activity, quack grass (quack grass; 50 g ai/ha): 0; Soil treatment herbicidal activity, barnyard grass (barnyard grass; 50 g ai/ha): 100; Foliar treatment herbicidal activity, Indian jointvetch (indian jointvetch; 50 g ai/ha): 100; Soil treatment herbicidal activity, Crabgrass (crabgrass [4]; 50 g ai/ha): 100
3 | Cn1nnc(COCc2nc(C(F)(F)F)ccc2C(=O)Nc2nnnn2C)n1 [Compound No. 2-59, N-(1-methyl-1H-tetrazol-5-yl)-2-(((2-methyl-2H-tetrazol-5-yl)methoxy)methyl)-6-(trifluoromethyl)nicotinamide] | 0 | 0 | 0 | 0 | 2 | 5 | 3 | 6 | 0 | 0 | 0 | 0 | 1 | 6 | 3 | 9 | 6 | 8 | 8 | 8 | pest or weed control at 50 g/ha (crabgrass [1]): 98%; pest or weed control at 50 g/ha (velvetleaf; Abutilon theophrasti, 50 g ai/ha, scale 0-100, read-out: Foliar treatment herbicidal activity, velvet leaf): 98%; Soil treatment herbicidal activity, Fall panicum (fall panicum; 50 g ai/ha): 100; Soil treatment herbicidal activity, Sorghum (sorghum [2]; 50 g ai/ha): 100; plant injury at 50 g/ha (sorghum [3]): 98%; pest or weed control at 50 g/ha (quack grass; 50 g ai/ha): 20%; Soil treatment herbicidal activity, barnyard grass (barnyard grass; 50 g ai/ha): 100; pest or weed control at 50 g/ha (indian jointvetch; 50 g ai/ha): 98%; pest or weed control at 50 g/ha (crabgrass [4]; Digitaria sanguinalis, 50 g ai/ha): 98%
